The source of these data is patent publication US7462636B2, “Broadspectrum substituted benzisoxazole sulfonamide HIV protease inhibitors” (priority 2002, dated 2008).

Like-named read-outs stand apart in the source and are kept apart here.

What is called CC50 is the concentration giving 50% cytotoxicity. Higher therefore signals lower toxicity to the cells.

The test system of series [1] is HIV strain C (protease mutant). The series is described as follows: Antiviral spectrum, mutant HIV strain C. It counts as cell-based. As to conditions: FR=EC50(mutant strain)/EC50(HIV-1 strain LAI); calculated averages. On the procedure: (§1) HIV- or mock-infected MT4 cells were incubated for five days in the presence of various concentrations of the inhibitor. At the end of the incubation period, all HIV-infected cells have been killed by the replicating virus in the control cultures in the absence of any inhibitor. Cell viability is measured by measuring the concentration of MTT, a yellow, water soluble tetrazolium dye that is converted to a purple, water insoluble formazan in the mitochondria of living cells only. Upon solubilization of the resulting formazan crystals with isopropanol, the absorbance of the solution is monitored at 540 nm. The values correlate directly to the number of living cells remaining in the culture at the completion of the five day incubation. The inhibitory activity of the compound was monitored on the virus-infected cells and was expressed as EC50 and EC90. These values represent the amount of the compound required to protect 50% and 90%, respectively, of the cells from the cytopathogenic effect of the virus. […] Wherever results are reported as e.g. pEC50 or pCC50 values, the result is expressed as the negative logarithm of the result expressed as EC50 or CC50 respectively. […]
(§2) As a measure of the broad spectrum activity of the present compounds, the fold resistance (FR), defined as FR=EC50(mutant strain)/EC50(HIV-1 strain LAI), was determined.

The nature of series [2]: Toxicity on mock-infected MT4 cells (MTT). It counts as cell-based. As to conditions: human. On the procedure:
HIV- or mock-infected MT4 cells were incubated for five days in the presence of various concentrations of the inhibitor. At the end of the incubation period, all HIV-infected cells have been killed by the replicating virus in the control cultures in the absence of any inhibitor. Cell viability is measured by measuring the concentration of MTT, a yellow, water soluble tetrazolium dye that is converted to a purple, water insoluble formazan in the mitochondria of living cells only. Upon solubilization of the resulting formazan crystals with isopropanol, the absorbance of the solution is monitored at 540 nm. The values correlate directly to the number of living cells remaining in the culture at the completion of the five day incubation. The inhibitory activity of the compound was monitored on the virus-infected cells and was expressed as EC50 and EC90. These values represent the amount of the compound required to protect 50% and 90%, respectively, of the cells from the cytopathogenic effect of the virus. […] Wherever results are reported as e.g. pEC50 or pCC50 values, the result is expressed as the negative logarithm of the result expressed as EC50 or CC50 respectively.
as §2

Series [3] has as its system HIV strain E (protease mutant). Description: Antiviral spectrum, mutant HIV strain E. It counts as cell-based. The settings on record: FR=EC50(mutant strain)/EC50(HIV-1 strain LAI); calculated averages. Here is the method: as §1, §2
In series [4] the test system is HIV strain A (protease mutant). The series is described as follows: Antiviral spectrum, mutant HIV strain A. In kind it is cell-based. The settings on record: FR=EC50(mutant strain)/EC50(HIV-1 strain LAI); calculated averages. On the procedure:
as §1, §2

For series [5], the system named is HIV strain G (protease mutant). Description: Antiviral spectrum, mutant HIV strain G. It counts as cell-based. As to conditions: FR=EC50(mutant strain)/EC50(HIV-1 strain LAI); calculated averages. On the procedure:
as §1, §2

For series [6], the system named is HIV strain F (protease mutant). The series is described as follows: Antiviral spectrum, mutant HIV strain F. The settings on record: FR=EC50(mutant strain)/EC50(HIV-1 strain LAI); calculated averages. It counts as cell-based. On the procedure: as §1, §2
Series [7] concerns HIV strain B (protease mutant). The series is described as follows: Antiviral spectrum, mutant HIV strain B. It counts as cell-based. As to conditions: FR=EC50(mutant strain)/EC50(HIV-1 strain LAI); calculated averages. On the procedure: as §1, §2
In series [8] the test system is HIV strain D (protease mutant). The series is described as follows: Antiviral spectrum, mutant HIV strain D. In kind it is cell-based. The settings on record: FR=EC50(mutant strain)/EC50(HIV-1 strain LAI); calculated averages. Here is the method: as §1, §2
Another series relates to HIV-1 strain LAI. The series is described as follows: Cellular anti-HIV assay (MT4 cells, MTT), wild type strain. It counts as cell-based. On the procedure: The compounds of the present invention were examined for anti-viral activity in a cellular assay. […] The cellular assay was performed according to the following procedure.
HIV- or mock-infected MT4 cells were incubated for five days in the presence of various concentrations of the inhibitor. At the end of the incubation period, all HIV-infected cells have been killed by the replicating virus in the control cultures in the absence of any inhibitor. Cell viability is measured by measuring the concentration of MTT, a yellow, water soluble tetrazolium dye that is converted to a purple, water insoluble formazan in the mitochondria of living cells only. Upon solubilization of the resulting formazan crystals with isopropanol, the absorbance of the solution is monitored at 540 nm. The values correlate directly to the number of living cells remaining in the culture at the completion of the five day incubation. The inhibitory activity of the compound was monitored on the virus-infected cells and was expressed as EC50 and EC90. […] Wherever results are reported as e.g. pEC50 or pCC50 values, the result is expressed as the negative logarithm of the result expressed as EC50 or CC50 respectively.
as §2

Series [9] is described as follows: Oral availability in the rat (serum concentration, LC-MS). In kind it is in vivo. As to conditions: both sexes, 10 mg/kg. Here is the method:
The oral availability of a selected compound was evaluated in a standard set of kinetic experiments, primarily in male and female rats and secondarily in male and female dogs. The compound was formulated as a 20 mg/ml solution or suspension in DMSO, PEG400 or cyclodextin 40% (CD40%) in water. For most experiments in the rat, three dosing groups were formed: 1/single intraperitoneal dose at 20 mg/kg using the DMSO formulation; 2/single oral dose at 20 mg/kg using the PEG400 formulation and 3/single oral dose at 20 mg/kg using the cyclodextrin formulation. In the dog, only the oral route of administration was used. Blood was sampled at regular time intervals after dosing and drug concentrations in the serum were determined using a LC-MS bioanalytical method. Serum concentrations were expressed in […] after normalization to 10 mg/kg. Below, the serum concentration at 30 minutes and at 3 hours is listed as these values reflect the extent of absorption (30′) and the speed of elimination (180′). The oral bioavailability in the rat was examined using DMSO and PEG formulations (cfr supra). The serum concentration following administration of 10 mg/kg of compound 1 was 10.2 ng/ml at 30 min (DMSO) and 22.2 ng/ml (PEG). The intraperitoneal absorption of a dose of 10 mg/kg (DMSO formulation) was 2076 ng/ml 30 minutes (min) following administration and 208 ng/ml 180 min following administration.

For the compound `CC(C)CN(C[C@@H](O)[C@H](Cc1ccccc1)NC(=O)O[C@H]1CO[C@H]2OCC[C@H]21)S(=O)(=O)c1ccc2onc(N)c2c1` [Compound 1, {3-[(3-Amino-benzo[d]isoxazole-5-sulfonyl)-isobutyl-amino]-1-benzyl-2-hydroxy-propyl}-carbamic acid hexahydro-furo[2,3-b]furan-3-yl ester], the “FR towards mutant C” value in series [1] is 0.49. Moreover, the CC50 at 5 days in series [2] is > 100000 nM. Also, the “FR towards mutant E” value in series [3] is recorded as 0.30. Also, in series [4], the “FR towards mutant A” value is listed as 0.63. The “FR towards mutant G” value in series [5] is given as 6.9. Besides, the “FR towards mutant F” value in series [6] is given as 0.85. The “FR towards mutant B” value in series [7] is 0.78. Moreover, the “FR towards mutant D” value in series [8] was 0.35. In addition, the EC50 with HIV-1 strain LAI (Human immunodeficiency virus 1, calculated averages, read-out: WT (pEC50) (converted)) is 7.94 nM. The concentration at 30 min was determined as 2.08 µg/mL in series [9] (ip, intraperitoneal, DMSO formulation, 30 min following administration, read-out: intraperitoneal absorption (serum concentration)); 0.0102 µg/mL in [9] (po, oral, DMSO formulation, at 30 min, read-out: serum concentration); 0.0222 µg/mL in series [9] (po, oral, PEG formulation, read-out: serum concentration). Also, in series [9] (ip, intraperitoneal, DMSO formulation, 180 min following administration, read-out: intraperitoneal absorption (serum concentration)), the concentration at 180 min was found to be 0.208 µg/mL.
Take “5-Methyl-isoxazole-4-carboxylic acid{3-[(3-amino-benzo[d]isoxazole-5-sulfonyl)-isobutyl-amino]-1-benzyl-2-hydroxy-propyl}-amide [Compound 6]”: the “FR towards mutant C” value in series [1] is reported as 5.5. Also, in series [3], the “FR towards mutant E” value is listed as 7.2. Besides, the “FR towards mutant A” value in [4] is listed as 16. Also, the “FR towards mutant G” value in [5] is listed as 16. Moreover, in series [6], the “FR towards mutant F” value was 16. Also, the “FR towards mutant B” value in series [7] is reported as 5.6. Further, the “FR towards mutant D” value in series [8] is on record as 16. Further, the “WT (pEC50)” value with HIV-1 strain LAI (calculated averages) is given as 6.2.
